Source: PubChem BioAssay (NCI)
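Each compound was tested at five concentrations against cells in 96-well plates for 48 hours. Definition used: TGI = concentration required for complete inhibition of growth.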

What was measured:
Assay in all cases: DTP human tumour cell line panel, 48 h
[1] = system: 786-0 renal
[2] = system: A498 renal
[3] = system: A549 NSCLC
[4] = system: ACHN renal
[5] = system: BT-549 breast
[6] = system: CAKI-1 renal
[7] = system: COLO 205 colon
[8] = system: DU-145 prostate
[9] = system: EKVX NSCLC
[10] = system: HCC-2998 colon
[11] = system: HCT-116 colon
[12] = system: HCT-15 colon
[13] = system: HL-60(TB) leukemia
[14] = system: HOP-62 NSCLC
[15] = system: HOP-92 NSCLC
[16] = system: HS 578T breast
[17] = system: HT29 colon
[18] = system: IGROV1 ovarian
[19] = system: K-562 leukemia
[20] = system: KM12 colon
[21] = system: LOX IMVI melanoma
[22] = system: M14 melanoma
[23] = system: MALME-3M melanoma
[24] = system: MDA-MB-231 breast
[25] = system: MDA-MB-435
[26] = system: MDA-N
[27] = system: MOLT-4 leukemia
[28] = system: NCI-H226 lung
[29] = system: NCI-H23 lung
[30] = system: NCI-H460 lung
[31] = system: NCI-H522 lung
[32] = system: OVCAR-3 ovarian
[33] = system: OVCAR-4 ovarian
[34] = system: OVCAR-5 ovarian
[35] = system: PC-3 prostate
[36] = system: RPMI-8226 leukemia
[37] = system: SF-268 CNS
[38] = system: SF-295 CNS
[39] = system: SK-MEL-2 melanoma
[40] = system: SK-MEL-28 melanoma
[41] = system: SK-MEL-5 melanoma
[42] = system: SK-OV-3 ovarian
[43] = system: SN12C renal
[44] = system: SNB-19 CNS
[45] = system: SNB-75 CNS
[46] = system: SR leukemia
[47] = system: SW-620 colon
[48] = system: T-47D breast
[49] = system: TK-10 renal
[50] = system: U251 CNS
[51] = system: UACC-257 melanoma
[52] = system: UACC-62 melanoma
[53] = system: UO-31 renal
[54] = system: MCF7 breast
[55] = system: NCI/ADR-RES ovarian
[56] = system: OVCAR-8 ovarian
[57] = system: RXF 393 renal
[58] = system: SF-539 CNS

Measured: TGI

O=C1CCCCC/C1=C\c1ccccc1
not listed: [54] | [55] | [56] | [57] | [58]
> 100 µM: all other assays above

Cc1cccc(C)c1Nc1nc(C)c(C(=O)CC(=O)C(=O)Nc2c(C(C)C)cccc2C(C)C)s1
not listed: [2] | [23] | [45]
> 100 µM: all other assays above
